According to PubChem BioAssay AID256 (DTP/NCI, 2004):
Values joined by “and” are separate entries in the source; they are usually repeats but may differ in a detail not shown here. Equal values may be shown once. Toxic doses and inconclusive results are not listed.

Test system: CD2F1 mice, L1210 leukemia ip, survival T/C
Experiment: NCI In Vivo Anticancer Drug Screen. Data for tumor model L1210 Leukemia (intraperitoneal) in CD2F1 (CDF1) mice
Details: higher = longer survival
In short: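 Transplantable tumor in mice; compound-treated vs vehicle-treated groups. Read-out = treated/control ratio of the measured endpoint.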

[1] = endpoint: mean survival time, dose: 100.0 mg/kg/injection, schedule: Q01DX001 (ip), vehicle: saline with Tween-80
[2] = endpoint: mean survival time, dose: 200.0 mg/kg/injection, schedule: Q01DX001 (ip), vehicle: saline with Tween-80
[3] = endpoint: mean survival time, dose: 100.0 mg/kg/injection, schedule: Q04DX002 (ip), vehicle: saline with Tween-80

CN(C)/C=N/N=C1c2ccccc2-c2ccccc21
T/C (endpoint: mean survival time, dose: 100.0 mg/kg/injection, schedule: Q01DX009 (ip), vehicle: saline with Tween-80): 93 % of control | T/C (endpoint: mean survival time, dose: 100.0 mg/kg/injection, schedule: Q04DX003 (ip), vehicle: saline with Tween-80): 100 % of control | T/C (endpoint: mean survival time, dose: 200.0 mg/kg/injection, schedule: Q01DX009 (ip), vehicle: saline with Tween-80): 98 % of control | T/C (endpoint: mean survival time, dose: 200.0 mg/kg/injection, schedule: Q04DX003 (ip), vehicle: saline with Tween-80): 94 % of control | T/C (endpoint: mean survival time, dose: 400.0 mg/kg/injection, schedule: Q01DX009 (ip), vehicle: saline with Tween-80): 90 % of control | T/C (endpoint: mean survival time, dose: 400.0 mg/kg/injection, schedule: Q04DX003 (ip), vehicle: saline with Tween-80): 101 % of control

O=C(CCCl)c1ccc2c(c1)OCO2
T/C (endpoint: mean survival time, dose: 100.0 mg/kg/injection, schedule: Q01DX001 (ip), vehicle: saline): 104 % of control | T/C (endpoint: mean survival time, dose: 200.0 mg/kg/injection, schedule: Q01DX001 (ip), vehicle: saline): 96 % of control

Nc1ccccc1CCCC(N)C(=O)O (stereo not given)
T/C [1]: 97 % of control | T/C [2]: 100 % of control | T/C (endpoint: mean survival time, dose: 400.0 mg/kg/injection, schedule: Q01DX001 (ip), vehicle: saline with Tween-80): 93 % of control

Clc1ccccc1P(c1ccccc1)c1ccccc1
T/C (endpoint: mean survival time, dose: 25.0 mg/kg/injection, schedule: Q04DX002 (ip), vehicle: saline with Tween-80): 100 % of control | T/C (endpoint: mean survival time, dose: 50.0 mg/kg/injection, schedule: Q04DX002 (ip), vehicle: saline with Tween-80): 100 % of control | T/C [3]: 100 % of control

Cc1cccc(C)c1NC(=O)CCl
T/C [1]: 103 % of control | T/C [2]: 100 % of control

Nc1nc(N)c2nc(COc3ccc(C(=O)NC(CCC(=O)O)C(=O)O)cc3)cnc2n1 (stereo not given)
T/C (endpoint: mean survival time, dose: 0.38 mg/kg/injection, schedule: Q01DX009 (ip), vehicle: saline with Tween-80): 110 % of control | T/C (endpoint: mean survival time, dose: 0.75 mg/kg/injection, schedule: Q01DX009 (ip), vehicle: saline with Tween-80): 109 % of control | T/C (endpoint: mean survival time, dose: 1.5 mg/kg/injection, schedule: Q01DX009 (ip), vehicle: sodium bicarbonate): 168 % of control | T/C (endpoint: mean survival time, dose: 3.0 mg/kg/injection, schedule: Q01DX009 (ip), vehicle: saline with Tween-80): 95 % of control | T/C (endpoint: mean survival time, dose: 3.0 mg/kg/injection, schedule: Q01DX009 (ip), vehicle: sodium bicarbonate): 179 % of control | T/C (endpoint: mean survival time, dose: 6.0 mg/kg/injection, schedule: Q01DX009 (ip), vehicle: sodium bicarbonate): 157 % of control

C=C1C(=O)OC(CCCCCCCCCCCCC)C1C(=O)O (stereo not given)
T/C (endpoint: mean survival time, dose: 10.0 mg/kg/injection, schedule: Q04DX002 (ip), vehicle: saline with Tween-80): 108 % of control | T/C (endpoint: mean survival time, dose: 20.0 mg/kg/injection, schedule: Q04DX002 (ip), vehicle: saline with Tween-80): 87 % of control

O=C(O)CC(=O)O.[NH-]CC(O)CN=Cc1ccccc1O.[Pt] (stereo not given)
T/C (endpoint: median survival time, dose: 5.0 mg/kg/injection, schedule: Q04DX003 (ip), vehicle: water): 108 % of control | T/C (endpoint: median survival time, dose: 10.0 mg/kg/injection, schedule: Q04DX003 (ip), vehicle: water): 105 % of control | T/C (endpoint: median survival time, dose: 20.0 mg/kg/injection, schedule: Q04DX003 (ip), vehicle: water): 108 % of control | T/C (endpoint: median survival time, dose: 25.0 mg/kg/injection, schedule: Q04DX003 (ip), vehicle: water): 110 % of control | T/C (endpoint: median survival time, dose: 40.0 mg/kg/injection, schedule: Q04DX003 (ip), vehicle: water): 108 % of control | T/C (endpoint: median survival time, dose: 50.0 mg/kg/injection, schedule: Q04DX003 (ip), vehicle: water): 110 % of control | T/C (endpoint: median survival time, dose: 100.0 mg/kg/injection, schedule: Q04DX003 (ip), vehicle: water): 105 % of control | T/C (endpoint: median survival time, dose: 200.0 mg/kg/injection, schedule: Q04DX003 (ip), vehicle: water): 103 % of control

O=C(Nc1ccc(F)cc1)Nc1ccc(F)cc1
T/C [3]: 94 % of control | T/C (endpoint: mean survival time, dose: 200.0 mg/kg/injection, schedule: Q04DX002 (ip), vehicle: saline with Tween-80): 87 % of control

c1ccc2c(NCCCCCCNc3c4ccccc4nc4ccccc34)c3ccccc3nc2c1
T/C (endpoint: mean survival time, dose: 0.62 mg/kg/injection, schedule: Q01DX009 (ip), vehicle: Klucel (hydroxypropylcellulose) (HPC)): 103 % of control | T/C (endpoint: mean survival time, dose: 1.25 mg/kg/injection, schedule: Q01DX009 (ip), vehicle: Klucel (hydroxypropylcellulose) (HPC)): 114 % of control and 123 % of control and 111 % of control | T/C (endpoint: mean survival time, dose: 2.5 mg/kg/injection, schedule: Q01DX009 (ip), vehicle: Klucel (hydroxypropylcellulose) (HPC)): 115 % of control and 109 % of control | T/C (endpoint: mean survival time, dose: 5.0 mg/kg/injection, schedule: Q01DX009 (ip), vehicle: Klucel (hydroxypropylcellulose) (HPC)): 123 % of control and 111 % of control | T/C (endpoint: mean survival time, dose: 10.0 mg/kg/injection, schedule: Q01DX009 (ip), vehicle: Klucel (hydroxypropylcellulose) (HPC)): 111 % of control | T/C (endpoint: mean survival time, dose: 20.0 mg/kg/injection, schedule: Q01DX009 (ip), vehicle: Klucel (hydroxypropylcellulose) (HPC)): 104 % of control
